Measurements published in US6022983A, “Pyronin antibacterials, process and novel intermediates thereto” (Scriptgen Pharmaceuticals, Inc., priority 1998, dated 2000).
In brackets after ≈: the same amount, converted by molar mass. Like-named read-outs stand apart in the source and are kept apart here.

Assays:
[1] = system: S. aureus*; experiment: Broth microdilution MIC, S. aureus* mutant strain; type: cell-based; settings: Staphylococcus aureus, read-out: MIC S. aureus*
Protocol: (§1) Different dilutions are performed for natural product extracts.

[2] = system: E. coli; experiment: Broth microdilution MIC, E. coli; type: cell-based; settings: Escherichia coli; Table II
Protocol: as §1

[3] = target: E. coli RNA polymerase (Escherichia coli, UniProt P0A8T7+P0A8V2); experiment: In vitro transcription assay, E. coli RNA polymerase; type: biochemical; settings: for IC50: Table II, read-out: In vitro transcription (E.coli RNAP) IC50 (converted); for relative potency in in vitro transcription assay (FIG. 20a,b): comparison in words
E. coli RNA polymerase, sequence (P0A8V2 whole entry): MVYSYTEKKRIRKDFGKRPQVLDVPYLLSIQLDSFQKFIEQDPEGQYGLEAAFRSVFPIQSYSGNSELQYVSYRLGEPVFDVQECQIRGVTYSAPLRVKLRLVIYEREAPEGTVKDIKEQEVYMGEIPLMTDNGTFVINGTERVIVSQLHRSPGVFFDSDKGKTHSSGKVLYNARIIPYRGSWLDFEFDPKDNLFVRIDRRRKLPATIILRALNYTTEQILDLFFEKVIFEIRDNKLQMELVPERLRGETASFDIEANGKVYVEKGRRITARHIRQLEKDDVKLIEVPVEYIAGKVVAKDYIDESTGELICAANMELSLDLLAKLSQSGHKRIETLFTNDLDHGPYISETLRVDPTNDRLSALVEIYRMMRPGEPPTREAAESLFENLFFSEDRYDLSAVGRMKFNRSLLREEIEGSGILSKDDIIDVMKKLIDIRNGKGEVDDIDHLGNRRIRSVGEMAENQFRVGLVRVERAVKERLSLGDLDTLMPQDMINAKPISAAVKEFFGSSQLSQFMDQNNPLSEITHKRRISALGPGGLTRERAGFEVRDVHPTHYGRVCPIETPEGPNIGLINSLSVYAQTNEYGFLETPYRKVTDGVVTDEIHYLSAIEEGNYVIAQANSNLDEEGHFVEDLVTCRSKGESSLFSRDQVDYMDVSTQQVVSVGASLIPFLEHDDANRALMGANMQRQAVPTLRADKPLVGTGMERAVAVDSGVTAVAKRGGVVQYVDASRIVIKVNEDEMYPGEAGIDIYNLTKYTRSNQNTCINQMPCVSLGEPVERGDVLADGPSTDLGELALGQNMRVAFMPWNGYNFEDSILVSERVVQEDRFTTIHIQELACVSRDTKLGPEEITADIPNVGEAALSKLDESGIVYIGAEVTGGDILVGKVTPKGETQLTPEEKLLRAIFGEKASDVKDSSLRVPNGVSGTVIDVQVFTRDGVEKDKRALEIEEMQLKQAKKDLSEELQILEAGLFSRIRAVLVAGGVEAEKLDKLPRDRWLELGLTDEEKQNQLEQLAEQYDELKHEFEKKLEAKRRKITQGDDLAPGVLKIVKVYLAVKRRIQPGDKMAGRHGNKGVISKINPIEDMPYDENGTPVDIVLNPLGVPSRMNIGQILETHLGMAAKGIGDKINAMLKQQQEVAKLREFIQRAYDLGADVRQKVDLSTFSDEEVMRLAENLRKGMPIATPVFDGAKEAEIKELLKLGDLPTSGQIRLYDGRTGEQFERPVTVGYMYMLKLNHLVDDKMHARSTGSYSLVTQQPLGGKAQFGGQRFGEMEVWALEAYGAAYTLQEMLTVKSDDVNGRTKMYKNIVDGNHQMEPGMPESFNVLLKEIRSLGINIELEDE
E. coli RNA polymerase, sequence (P0A8T7 whole entry): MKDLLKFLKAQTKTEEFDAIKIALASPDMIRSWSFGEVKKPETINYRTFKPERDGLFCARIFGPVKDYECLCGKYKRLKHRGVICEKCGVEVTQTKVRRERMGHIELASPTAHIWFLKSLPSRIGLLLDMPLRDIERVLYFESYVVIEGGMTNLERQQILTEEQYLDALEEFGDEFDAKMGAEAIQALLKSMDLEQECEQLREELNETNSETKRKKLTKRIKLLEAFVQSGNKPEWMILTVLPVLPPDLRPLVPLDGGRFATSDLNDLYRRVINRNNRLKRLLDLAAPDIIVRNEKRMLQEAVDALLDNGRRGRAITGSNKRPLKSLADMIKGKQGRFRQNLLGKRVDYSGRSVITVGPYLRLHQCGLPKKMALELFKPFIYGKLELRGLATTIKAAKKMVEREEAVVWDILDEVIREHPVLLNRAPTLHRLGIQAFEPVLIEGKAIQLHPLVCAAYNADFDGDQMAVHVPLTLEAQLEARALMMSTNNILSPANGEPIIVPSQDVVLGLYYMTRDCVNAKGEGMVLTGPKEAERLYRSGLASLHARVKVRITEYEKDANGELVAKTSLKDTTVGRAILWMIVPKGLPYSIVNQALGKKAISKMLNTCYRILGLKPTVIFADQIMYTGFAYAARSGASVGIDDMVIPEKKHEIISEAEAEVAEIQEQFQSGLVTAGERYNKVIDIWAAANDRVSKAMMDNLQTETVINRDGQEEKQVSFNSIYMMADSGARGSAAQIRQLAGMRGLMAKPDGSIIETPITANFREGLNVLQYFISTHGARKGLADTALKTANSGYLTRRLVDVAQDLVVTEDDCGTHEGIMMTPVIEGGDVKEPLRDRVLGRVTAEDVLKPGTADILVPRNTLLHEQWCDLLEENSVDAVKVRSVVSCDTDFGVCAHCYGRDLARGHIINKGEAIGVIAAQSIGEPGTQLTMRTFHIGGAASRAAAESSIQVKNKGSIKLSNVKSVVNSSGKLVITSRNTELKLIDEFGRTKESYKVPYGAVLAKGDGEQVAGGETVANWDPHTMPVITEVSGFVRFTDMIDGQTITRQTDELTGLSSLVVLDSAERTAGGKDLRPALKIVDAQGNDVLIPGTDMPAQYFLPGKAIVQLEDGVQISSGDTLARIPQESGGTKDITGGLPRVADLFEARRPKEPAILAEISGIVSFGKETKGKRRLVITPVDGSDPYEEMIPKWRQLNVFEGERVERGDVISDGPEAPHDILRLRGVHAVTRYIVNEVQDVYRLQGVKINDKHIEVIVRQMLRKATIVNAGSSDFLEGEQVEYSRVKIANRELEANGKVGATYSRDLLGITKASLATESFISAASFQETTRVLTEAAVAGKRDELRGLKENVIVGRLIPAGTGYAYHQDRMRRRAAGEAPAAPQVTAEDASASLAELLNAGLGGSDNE
E. coli RNA polymerase, sequence (P0A7Z4 whole entry partner): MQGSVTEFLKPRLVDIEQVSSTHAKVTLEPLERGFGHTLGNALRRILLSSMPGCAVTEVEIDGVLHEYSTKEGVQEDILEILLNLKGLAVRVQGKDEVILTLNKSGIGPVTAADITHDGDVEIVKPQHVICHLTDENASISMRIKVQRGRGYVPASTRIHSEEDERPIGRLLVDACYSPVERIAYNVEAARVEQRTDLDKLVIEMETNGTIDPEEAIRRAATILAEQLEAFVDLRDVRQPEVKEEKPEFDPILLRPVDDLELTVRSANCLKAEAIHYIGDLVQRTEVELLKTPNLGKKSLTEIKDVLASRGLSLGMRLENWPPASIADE
E. coli RNA polymerase, sequence (P0A800 whole entry partner): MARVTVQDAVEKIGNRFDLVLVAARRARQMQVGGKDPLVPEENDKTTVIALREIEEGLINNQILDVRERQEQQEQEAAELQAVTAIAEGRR
Protocol: In vitro transcription reactions. [α^32 P] UTP-incorporated RNA was synthesized in 50 μl reaction volumes containing transcription buffer (50 mM Tris-HCl, pH 8.0, 200 mM KCl, 10 mM MgCl2, 10 mM DTT and 1.5 μM BSA), 1 μg of DNA template, 4 μM UTP containing 5 μCi of [α^32 P] UTP, 400 μM each of ATP, GTP, and CTP. After incubation for 60 minutes at 25° C., the reaction is terminated with 100 μl 10% TCA, which also precipitates the newly transcribed RNA.
Biological Evaluation of (±)-Myxopyronin A & B. The biological activities of the myxypyronins were evaluated with an in vitro transcription assay using E. coli RNA polymerase (FIG. 20a,b). […] As a validation of the in vitro transcription assay, a known transcription inhibitor, rifampicin, was included in the assay.

[4] = system: S. aureus; experiment: Broth microdilution MIC, S. aureus; type: cell-based; settings: for MIC: Staphylococcus aureus, Table II
Protocol: as §1

[5] = system: E. coli* (mutant strain that has permeabilized cell wall); experiment: Broth microdilution MIC, E. coli* mutant with permeabilized cell wall; type: cell-based; settings: Escherichia coli, read-out: MIC E. coli*
Protocol: as §1

[6] = system: rifampicin resistant strains; experiment: microbe, parasite or virus in culture; settings: Staphylococcus aureus
Protocol: (§2) Microdilution Minimal Inhibitory Concentration (MIC) and Minimum Bactericidal Concentration (MBC) Assays
(§3) The MIC is reported as a range between the concentration at which no growth is observed and the concentration of the dilution which immediately followed. Selected inhibitors from the RNA polymerase screen described above were tested for their ability to inhibit bacterial growth in a broth microdilution assay as follows. […] Dilution of antimicrobial agents is performed in a sterile, covered 96-well microliter plate with flat bottom wells (Costar #9017), and each well contains 100 μL of both +/- antimicrobial agent. The final concentrations of the small molecule antimicrobial agents are 100, 50, 25, 12.5, 6.25, 3.12, 1.56, 0.78, 0.39, 0.20, 0.10, and 0.05 μg/mL, respectively. Different dilutions are performed for natural product extracts. They are first diluted 100-fold with Mueller-Hinton broth. The final dilutions of the natural product extracts are 200, 400, 800, 1600, 3200, 6400, 12800, 25600, 51200, 1×105, 2×105, and 4×105 -fold. A 1 % DMSO (no-drug) row is prepared in Mueller-Hinton broth as a control for 100% growth on each plate. A Mueller-Hinton broth only with no bacteria growth is also included as a negative control for each plate. Ampicillin and rifampin are used as positive controls against all bacterial strains in every experiment.
(§4) The overnight culture of a single colony is diluted in sterile Mueller-Hinton broth so that, after inoculation, each well contains approximately 5×10^5 CFU/mL. Within 15 minutes of preparation, […] of the adjusted inoculum suspension is added to the microliter plate. Each well is diluted with an equal volume of the antimicrobial agent/control substance diluted with sterile Mueller-Hinton broth. The inoculated microliter plate is incubated at 35° C. for 16-20 hours. The turbidity of each well is determined by measuring the absorbance at 595 nm on the BioRad Model 3550-UV microplate reader. The rows containing broth only (no cells) serve as a control, and the rows containing the titration of 1% DMSO serve as a control for 100% growth. The average of the broth only controls is subtracted from the average of each duplicate. This value is subsequently normalized to the average of the DMSO controls.

[7] = system: rifampicin susceptible strains; experiment: microbe, parasite or virus in culture; settings: Staphylococcus aureus
Protocol: as §2, §3, §4

Structure (SMILES)	MIC [1]	MIC [2]	IC50 [3]	relative potency in in vitro transcription assay (FIG. 20a,b) [3]	MIC [4]	MIC [5]	fold more potent cell-based activities than myxopyronin A ([4]; MIC values of Table II, B versus A)	MIC ([6]; read-out: MIC against resistant strains)	MIC ([6]; read-out: MIC against rifampicin resistant strains)	MIC ([7]; read-out: MIC against susceptible strains, Example 9 statement b281)	MIC ([7]; read-out: MIC against susceptible strains, background statement b31)
CCC/C(C)=C/C=C(\C)C(=O)c1c(O)cc(C(C)CC/C=C/NC(=O)OC)oc1=O (racemic) [(±)-Myxo A, (±)-Myxopyronin A]	8 µg/mL (≈ 19.2 µM)	> 30 µg/mL	47.9 µM	equally potent as the natural product mixtures	15 µg/mL (≈ 35.9 µM)	4 to 8 µg/mL (≈ 9.58 to 19.2 µM)	–	–	–	–	–
CCCC/C(C)=C/C=C(\C)C(=O)c1c(O)cc(C(C)CC/C=C/NC(=O)OC)oc1=O (racemic) [(±)-Myxo B, (±)-Myxopyronin B]	0.5 µg/mL (≈ 1.16 µM)	> 30 µg/mL	11.6 µM	more potent molecule than A	0.5 µg/mL (≈ 1.16 µM)	2 µg/mL (≈ 4.63 µM)	up to 30 fold	–	–	–	–
CO[C@H]1/C=C/O[C@@]2(C)Oc3c(C)c(O)c4c(O)c(c(/C=N/N5CCN(C)CC5)c(O)c4c3C2=O)NC(=O)/C(C)=C\C=C\[C@H](C)[C@H](O)[C@@H](C)[C@@H](O)[C@@H](C)[C@H](OC(C)=O)[C@@H]1C [rifampicin]	–	–	–	–	–	–	–	> 10 µM	> 100 µM	10 µM (≈ 8.23 µg/mL)	~0.01 µM (≈ 0.00823 µg/mL)
